Marks after values point to notes of the source that are not given here. Ends that are not written are not given here.
What was measured:
[1] = Amylin with prior or concurrent food restriction in retired female breeder rats (Example 4); assay type: in vivo, rat; conditions: for % Change in fat / % Change in protein / Estimated Mean Weight change from treatment: amylin 100 μg/kg/day, retired female breeder rats, high fat diet
Excerpt: Retired female breeder rats were maintained on a high fat diet (40% fat) for 8 weeks. Prior to drug treatment, rats were either ad-lib fed or food restricted to 95% of their starting body weight.
Changes in body weight and body composition are summarized in the table below and depicted in FIGS. 13A-13P.

[2] = Chronic amylin infusion vs pair-feeding in lean HSD rats (Example 3); assay type: in vivo, rat
Description: Lean, male Harlan SPRAGLE DAWLEY® (HSD) (Harlan 7012) rats were maintained on “standard chow” (˜5% calories from fat).
Food intake and body weight were recorded daily (FIGS. 5, 6A, 6B, 7, 8A, and 8B).
On the final day of the experiment, rats were deeply anaesthetized and sacrificed by cardiac puncture. Plasma triglycerides, glucose, and cholesterol were measured on a COBAS Mira plasma Analyzer (Roche). Plasma leptin and insulin were measured using Linco Research kits. (See, FIGS. 9A-9F and 10A-10E.) Body composition was measured by chemical analysis (Covance Laboratories, Madison, Wis.). Fat pad weights of the epididymal, retroperitoneal, subcutaneous, and perirenal fat pads (all unilateral; analysis only done in DIO animals) were carefully dissected and weighed (FIGS. 12A-12D). In analyzing the tissue biochemistry, […] were powdered under liquid N2 and extracted in chloroform:methanol. 0.6% NaCl solution was then added and the tubes were vortexed, centrifuged, and the organic phase was transferred to glass scintillation vials and dried under a stream of N2. Dried lipids were resuspended and triglycerides were quantified by enzymatic assay (Pointe Scientific, Inc.). Tissue glycogen was measured by the amyloglucosidase method. (See FIGS. 11A-11D.)
All data are represented as mean±SEM. Analysis of variance (ANOVA) and Bonferroni post-hoc tests were used to test for group differences (SYSTAT® for Windows). A P-value <0.05 was considered significant. Graphs were generated using PRISM® 4 for Windows (Graphpad Software).

[3] = Three doses of amylin by osmotic pump in high fat-fed rats (Example 2); assay type: in vivo, rat; conditions: for Body Weight / Caloric Intake: high fat-fed rats, vs high fat-fed controls
Excerpt: (§1) Low fat-fed rats (11% kcal from fat, D12329, Research Diets) were also implanted with pumps delivering vehicle. Food intake and body weight measurements were obtained weekly.

[4] = Amylin or sibutramine by 28-day osmotic pump in high fat-fed rats (Example 1); assay type: in vivo, rat; conditions: for Body Weight / Caloric Intake: amylin 300 μg/kg/day or sibutramine 3 mg/kg/day, s.c. 28-day osmotic pump, high fat-fed rats, vs high fat-fed controls
Description: as §1
Rats were sacrificed by cardiac puncture under anesthesia. Triglyceride levels were measured on a COBAS Mira plasma analyzer (Roche), and leptin and insulin were assayed according to Linco Research rat RIA kits. Body composition was measured by chemical analysis (Covance Laboratories, Madison, Wis.).
All data are represented as mean±SEM. Analysis of variance was used to test for group differences.
The rats were fattened for 10 weeks prior to drug treatment. The high fat-fed rats were designated as obesity-prone (top 50% of weight gainers) or obesity-resistant (bottom 50%) based on the amount of weight gained through week 7.
In this study, an obesity-prone/obesity-resistant difference in drug interaction was found for protein weight in amylin-treated rats, and thus body composition parameters were measured separately in obesity-prone and obesity-resistant animals in each drug group (FIGS. 2A and 2B).

[5] = Chronic amylin infusion vs pair-feeding in DIO Levin rats (Example 3); assay type: in vivo, rat; parameters: reduction in body weight relative to vehicle controls / Weight (g) / Ash (%): dose or concentration left out as unconfirmed
[6] = Amylin versus pramlintide in DIO Levin rats (Example 5); assay type: in vivo, rat; conditions: 76 nmol/kg/day by osmotic mini-pump for 24 days
Description: 48 DIO Levin rats (an in-bred model of diet induced obesity) were used in this study. […] Food intake and body weight was measured daily. […] The pair-fed groups were only allowed to consume the daily intakes of their respective drug-treated groups. For body composition, rats were scanned in a rodent NMR before treatment and after sacrifice (at the end of the study), allowing for the ability to calculate changes in carcass fat and protein (e.g., lean tissue).

[7] = tested on: insulin-stimulated glycogen synthesis in soleus muscle; test: Soleus muscle assay; assay type: cell-based; conditions: rat soleus muscle, inhibition of glucose incorporation into glycogen
Description: Concentrations of peptide dissolved in carrier-free buffers are determined by quantitative amino acid analysis, as described therein. The ability of compounds to act as agonists in this assay is determined by measuring EC50 values. […] Similar results were obtained with other agonist compounds listed above.

[8] = food access prior Ad-lib, during Ad-lib
[9] = food access prior Ad-lib, during Restricted
[10] = food access prior Restricted, during Ad-lib
[11] = food access prior Restricted, during Restricted
[12] = amylin 300 mg/kg/day, s.c. 28-day osmotic pump, body composition by chemical analysis
[13] = DIO rats, amylin 300 mg/kg/day, s.c. 28-day osmotic pump, body composition by chemical analysis

## amylin: Amylin synthesized by Amylin Pharmaceuticals, Inc. by solid-phase chemistry; species not stated (KCNTATCATQRLANFLVHSSNNFGAILSSTNVGSNTY; not fully specified (C-terminus, bridges); cysteine pairing not given here; UniProt P10997 34-70, looked up)
[1]; FIGS. 13E-13H
  food intake versus vehicle treated counterparts: ate less
[1]; all treatment conditions
  Body Weight: significantly reduced
[1]; except in ad-lib fed then food restricted group
  percent protein: increases
[1]; except in chronically restricted animals
  percent body fat: significant decreases
[1]; [8]
  % Change in fat: −10.1 ± 0.5%
  % Change in protein: 0.8 ± 0.1%
  Estimated Mean Weight change from treatment: -21.8 ± 1.4 g
[1]; [9]
  % Change in fat: −9.9 ± 0.9%
  % Change in protein: 0.7 ± 0.1%
  Estimated Mean Weight change from treatment: -23.1 ± 2.3 g
[1]; [10]
  % Change in fat: −11.5 ± 0.6%
  % Change in protein: 1.1 ± 0.1%
  Estimated Mean Weight change from treatment: -18.2 ± 2.5 g
[1]; [11]
  % Change in fat: −11.1 ± 1.0%
  % Change in protein: 1.0 ± 0.1%
  Estimated Mean Weight change from treatment: -17.1 ± 2.0 g
[2]
  percent body fat relative to pair-fed: lower
  percent protein: remained relatively constant
  weight gain compared to vehicle rats: significant reduction
[2]; amylin 300 μg/kg/day, osmotic pump
  reduction in body weight relative to vehicle controls: 12%
[2]; amylin 300 μg/kg/day, s.c. 28-day osmotic pump, body composition by chemical analysis
  Fat (%): 7.2 ± 1.5 %
[2]; amylin 300 μg/kg/day, s.c. 28-day osmotic pump, end of study
  Weight (g): 392.25* g
[2]; [12]
  Moisture (%): 67.57 ± 0.7 %
  Protein (%): 20.67 ± 0.74%
[3]; 30 μg/kg/day
  body weight gain: reduction
[3]; 30 μg/kg/day amylin, Week 1
  Body Weight: 5%*
  Caloric Intake: 32%*
[3]; 30 μg/kg/day amylin, Week 2
  Body Weight: 7%*
  Caloric Intake: 17%*
[3]; 30 μg/kg/day amylin, Week 3
  Body Weight: 7%*
  Caloric Intake: 10%
[3]; 30 μg/kg/day amylin, Week 4
  Body Weight: 7%*
  Caloric Intake: 8%
[3]; 100 μg/kg/day amylin, Week 1
  Body Weight: 10%*
  Caloric Intake: 45%*
[3]; 100 μg/kg/day amylin, Week 2
  Body Weight: 10%*
  Caloric Intake: 19%*
[3]; 100 μg/kg/day amylin, Week 3
  Body Weight: 9%*
  Caloric Intake: 4%
[3]; 100 μg/kg/day amylin, Week 4
  Body Weight: 8%*
  Caloric Intake: 9%
[3]; 300 μg/kg/day amylin, Week 1
  Body Weight: 7%*
  Caloric Intake: 41%*
[3]; 300 μg/kg/day amylin, Week 2
  Body Weight: 8%*
  Caloric Intake: 15%*
[3]; 300 μg/kg/day amylin, Week 3
  Body Weight: 10%*
  Caloric Intake: 19%*
[3]; 300 μg/kg/day amylin, Week 4
  Body Weight: 12%*
  Caloric Intake: 19%*
[3]; 30, 100 and 300 μg/kg/day
  effects on food intake and body weight across doses: dose-dependent
[4]; Week 1
  Body Weight: 6%*
  Caloric Intake: 45%*
[4]; Week 2
  Body Weight: 7%*
  Caloric Intake: 14%*
[4]; Week 3
  Body Weight: 8%*
  Caloric Intake: 10%*
[4]; Week 4
  Body Weight: 8%*
  Caloric Intake: 10%*
[4]; administered by osmotic pump
  tolerance/resistance: did not induce tolerance/resistance
[4]; obesity-prone rats
  protein compared to the control group (vehicle only): increase
[5]; DIO rats
  percent body fat: significant decrease
  percent protein: significant preservation or gain
  weight gain compared to vehicle rats: significant reduction
[5]; [13]
  Fat (%): 24.3 ± 6.5 %
  Moisture (%): 56.68 ± 4.4 %
  Protein (%): 18.09 ± 1.68 %
[5]; DIO rats, osmotic pump
  reduction in body weight relative to vehicle controls: 12%
[5]; DIO rats, s.c. 28-day osmotic pump, body composition by chemical analysis
  Ash (%): 1.65 ± 0.34%
[5]; DIO rats, s.c. 28-day osmotic pump, end of study
  Weight (g): 548.94* g
[5]; tissue biochemistry, amyloglucosidase method
  muscle glycogen content: significantly reduced
[6]
  slowing body weight gain: significant effect
[6]; rodent NMR
  effects on body composition: favorable effects

## ^2,37h-Amylin
[7]
  EC50: 1.63 nM

Source: patent US7399744B2, “Methods for affecting body composition” (Amylin Pharmaceuticals, Inc., priority 2004, dated 2008)
